# Experimental data: the supplement of paper PMC11208160
# Assay: recombinant barcode read abundance after kanamycin selection (control-corrected) (log10(CPM+1)); higher = more efficient recombination; sequences stand for … in AGTGCAGAGAAAATCGGCCAGTTTTCTCTGCCTGCAGTCCGCATGCCGT…AGATTTATGCAGCGGACTGCCTTTCTCCCAAAGTGATAAACCGGACAGTATCATGGACCGGTTTTCCCGGTAATCCGTATTTGCAAGGTTGGTTTCACT; site = the 11-nt target
# How it was run: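 A promoter, a target, a barcode and the first 104 bridge RNA bases under J23119 made up each oligo. Oligos were Gibson-cloned into a vector bearing the other 73 bp and a T7-inducible recombinase, then co-electroporated into E. coli with a donor plasmid and plated in duplicate on chloramphenicol/ampicillin LB agar (control) or chloramphenicol/ampicillin/kanamycin with 0.1 mM IPTG. Recombination efficiency is the averaged, control-corrected counts per million of recombinant-junction barcodes. Reported values are log10(CPM+1).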
# 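Further: IS621 recombinase and bridge RNA in Escherichia coli cells.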
row,Sequence,recombinant barcode read abundance (log10)
1,CTAAGCGCTTGGGTTCTAACCTGTTGCCA (site CTAAGCGCTTG),0.647
2,CTAAGCGCTTGGGTTCTAACCTGTTGCCA (site CTAAGGGCTTG),0.205
3,CTAAGCGCTTGGGTTCTAACCTGTTGCCA (site CTAAGTGCTTG),0.0786
4,CTAAGCTCTTGGGTTCTAACCTGTTGCTT (site CTAAGCTCTAA),0.0662
5,CTAAGCTCTTGGGTTCTAACCTGTTGCTT (site CTAAGCTCTCA),0.133
6,CTAAGCTCTTGGGTTCTAACCTGTTGCTT (site CTAAGCTCTGA),0.0802
7,CTAAGCTCTTGGGTTCTAACCTGTTGCTT (site CTAAGCTCTTA),0.107
8,CTAAGGCCTTGGGTTCTAACCTGTTGCCT (site CTAAAGCCTAG),0.377
9,CTAAGGCCTTGGGTTCTAACCTGTTGCCT (site CTAAGGCCTAG),0.162
10,CTAAGGTCTTGGGTTCTAACCTGTTGCTA (site CTAAGGTCTTA),1.64
11,CTAAGGTCTTGGGTTCTAACCTGTTGCTA (site TCTTTAGCTCT),0.123
12,CTAAGTGCTTGGGTTCTAACCTGTTGCCA (site CTAAGAGCTTG),0.0354
13,CTAAGTGCTTGGGTTCTAACCTGTTGCCA (site CTAAGCGCTTG),0.0378
14,CTAAGTGCTTGGGTTCTAACCTGTTGCCA (site CTAAGGGCTTG),0.0841
15,CTAAGTGCTTGGGTTCTAACCTGTTGCCA (site CTAAGTGCTTG),0.35
16,CTAATATCTTGGGTTCTAACCTGTTGCCA (site CTAATATCTTG),0.0293
17,CTAATATCTTGGGTTCTAACCTGTTGCCA (site CTCATATCTTG),0.128
18,CTAATGTCTTGGGTTCTAACCTGTTGCCA (site CTAATGTCTAG),0.622

row,Sequence,recombinant barcode read abundance (log10)
1,CTAATGTCTTGGGTTCTAACCTGTTGCCA (site CTAATGTCTTG),0.26
2,CTAATTACTTGGGTTCTAACCTGTTGCAA (site CTAAGTACTCT),0.0716
3,CTAATTACTTGGGTTCTAACCTGTTGCAA (site CTAATTACTTT),0.094
4,CTACAAGCTTGGGTTCTAACCTGTTGCCT (site CTACAAGCTAG),1.34
5,CTACAAGCTTGGGTTCTAACCTGTTGCCT (site CTCCAAGCTAG),0.279
6,CTACAAGCTTGGGTTCTAACCTGTTGCCT (site CTGCAAGCTAG),0.155
7,CTACAAGCTTGGGTTCTAACCTGTTGCCT (site CTTCAAGCTAG),0.177
8,CTACAATCTTGGGTTCTAACCTGTTGCCT (site ATACAATCTAG),0.0309
9,CTACAATCTTGGGTTCTAACCTGTTGCCT (site CTACAATCTAG),0.979
10,CTACAATCTTGGGTTCTAACCTGTTGCCT (site GTACAATCTAG),0.0211
11,CTACAATCTTGGGTTCTAACCTGTTGCCT (site TTACAATCTAG),0.0283
12,CTACACACTTGGGTTCTAACCTGTTGCTC (site CTACACACTGA),1.64
13,CTACACACTTGGGTTCTAACCTGTTGCTC (site CTACACACTTA),0.0402
14,CTACAGACTTGGGTTCTAACCTGTTGCGA (site CTACAGACTAC),0.0546
15,CTACAGACTTGGGTTCTAACCTGTTGCGA (site CTACAGACTCC),1.04
16,CTACAGACTTGGGTTCTAACCTGTTGCGA (site CTACAGACTGC),0.0716
17,CTACAGACTTGGGTTCTAACCTGTTGCGA (site CTACAGACTTC),2.73
18,CTACAGACTTGGGTTCTAACCTGTTGCGC (site CTACAGACTAC),0.253
